Reference: US20150315188A1, “COMPOUNDS AND METHODS FOR TREATMENT OF HYPERTENSION” (MEDIVATION TECHNOLOGIES, INC., priority 2012, published 2015)

Key:
Parameters in all cases: purchased Milipore (Millipore)
[1] = biological target: T1, Human adrenergic α2B receptor (Homo sapiens, UniProt P18089); test: Radioligand binding, adrenergic α2B (Protocol Group B); conditions: Protocol Group B; for inhibition at 0.01 µM / Percentage inhibition of ligand binding, Adrenergic α2B (10 nM): 10 nM compound; for inhibition at 0.01 µM: read-out: Percentage inhibition of ligand binding, Adrenergic α2B (10 nM); for Percentage inhibition of ligand binding, Adrenergic α2B (30 nM): 0.03 µM; for Percentage inhibition of ligand binding, Adrenergic α2B (10 nM): 0.01 µM
T1 sequence (P18089 1-450): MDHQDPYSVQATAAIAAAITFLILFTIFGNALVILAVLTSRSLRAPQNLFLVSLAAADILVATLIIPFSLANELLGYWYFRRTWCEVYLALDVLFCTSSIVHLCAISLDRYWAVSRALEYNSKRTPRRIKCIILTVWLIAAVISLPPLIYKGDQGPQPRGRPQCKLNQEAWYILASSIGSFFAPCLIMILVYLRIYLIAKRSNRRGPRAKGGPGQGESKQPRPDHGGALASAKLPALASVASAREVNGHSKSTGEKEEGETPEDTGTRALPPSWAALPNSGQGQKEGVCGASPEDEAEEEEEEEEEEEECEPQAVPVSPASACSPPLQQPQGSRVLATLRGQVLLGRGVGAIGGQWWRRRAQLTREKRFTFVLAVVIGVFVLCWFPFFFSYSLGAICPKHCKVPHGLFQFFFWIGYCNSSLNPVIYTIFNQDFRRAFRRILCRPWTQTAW
Method: To evaluate the activity of compounds in radioligand binding assays, Human adrenergic α2B receptor obtained from recombinant cell membrane from Milipore. Binding experiments were carried out in Tris-HCl buffer (50 mM Tris-HCl buffer, pH 7.4, 5 mM Mgcl2, 1 mM Cacl2, 0.2% BSA) as recommended by Milipore. […] Non-specific binding was estimated in the presence of 10 μM Rauwolscine. […] Compounds were screened at various concentrations, using 1% DMSO as vehicle. Biochemical assay results are presented as the percent Inhibition of specific binding in Table B1b, or estimated Ki values in Table B1c.

[2] = biological target: T2, Human adrenergic α1B receptor (Homo sapiens, UniProt P35368); test: Radioligand binding, adrenergic α1B (Protocol Group B); conditions: Protocol Group B; for Percentage inhibition of ligand binding, Adrenergic α1B (0.1 μM): 0.1 μM compound; for Percentage inhibition of ligand binding, Adrenergic α1B (0.3 μM): 0.3 μM compound
T2 sequence (P35368 1-520): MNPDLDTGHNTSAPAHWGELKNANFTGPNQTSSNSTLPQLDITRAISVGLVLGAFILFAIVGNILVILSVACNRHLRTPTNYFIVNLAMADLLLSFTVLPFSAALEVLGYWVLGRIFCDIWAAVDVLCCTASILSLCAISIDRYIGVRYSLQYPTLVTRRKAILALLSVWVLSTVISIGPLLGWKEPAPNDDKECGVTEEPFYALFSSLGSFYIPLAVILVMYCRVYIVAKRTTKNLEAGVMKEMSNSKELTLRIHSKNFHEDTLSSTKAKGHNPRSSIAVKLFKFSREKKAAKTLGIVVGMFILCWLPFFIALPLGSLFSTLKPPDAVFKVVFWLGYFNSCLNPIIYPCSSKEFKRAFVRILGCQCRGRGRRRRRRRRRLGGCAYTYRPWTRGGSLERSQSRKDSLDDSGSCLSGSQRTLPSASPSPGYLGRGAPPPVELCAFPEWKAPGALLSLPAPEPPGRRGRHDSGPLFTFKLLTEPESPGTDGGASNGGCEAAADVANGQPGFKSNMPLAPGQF
Method: To evaluate the activity of compounds in radioligand binding assays, Human adrenergic α1B receptor obtained from recombinant cell membrane from Milipore. Binding experiments were carried out in Tris-HCl buffer (50 mM Tris-HCl buffer, pH 7.4, 10 mM Mgcl2, 1 mM EDTA) as recommended by Milipore. Compounds were incubated with 0.3 nM [^3H]Prazosin for 60 min at 25° C. Non-specific binding was estimated in the presence of 10 μM prazosin. Receptor proteins were harvested on 0.33% PEI(poly-ethylenemine) soaked GFC filter mat, the specifically bound [^3H]Prazosin were counted to determine total binding. Compounds were screened at various concentrations, using 1% DMSO as vehicle. percent inhibition of specific binding was determined. Biochemical assay results are presented as the percent Inhibition of specific binding in Table B1b, or estimated Ki values in Table B1c.

[3] = biological target: T3, Human adrenergic α2A receptor (Homo sapiens, UniProt P08913); test: Radioligand binding, adrenergic α2A (Protocol Group B); conditions: Protocol Group B; for Percentage inhibition of ligand binding, Adrenergic α2A (0.1 μM): 0.1 μM compound; for Percentage inhibition of ligand binding, Adrenergic α2A (0.3 μM) / inhibition at 0.3 µM: 0.3 μM compound; for inhibition at 0.3 µM: read-out: Percentage inhibition of ligand binding, Adrenergic α2A (0.3 μM)
T3 sequence (P08913 1-465): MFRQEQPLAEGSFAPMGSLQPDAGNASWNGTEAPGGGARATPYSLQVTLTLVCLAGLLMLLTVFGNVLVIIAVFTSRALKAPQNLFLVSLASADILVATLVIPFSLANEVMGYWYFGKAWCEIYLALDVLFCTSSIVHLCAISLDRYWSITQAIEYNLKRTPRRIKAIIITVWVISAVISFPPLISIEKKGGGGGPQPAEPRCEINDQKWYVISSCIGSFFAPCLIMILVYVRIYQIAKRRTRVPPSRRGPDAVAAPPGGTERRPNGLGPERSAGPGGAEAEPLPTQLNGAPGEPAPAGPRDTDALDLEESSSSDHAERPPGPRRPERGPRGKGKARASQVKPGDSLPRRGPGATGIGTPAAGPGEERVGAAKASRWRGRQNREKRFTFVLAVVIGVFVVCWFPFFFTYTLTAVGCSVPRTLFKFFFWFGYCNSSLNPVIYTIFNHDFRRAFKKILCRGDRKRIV
Method: To evaluate the activity of compounds in radioligand binding assays, Human adrenergic α2A receptor obtained from recombinant cell membrane from Milipore. Binding experiments were carried out in Tris-HCl buffer (50 mM Tris-HCl buffer, pH 7.4, 5 mM Mgcl2, 1 mM Cacl2, 0.2% BSA) as recommended by Milipore. Compounds were incubated with 2 nM [^3H]MK-912 for 60 min at 25° C. Non-specific binding was estimated in the presence of 10 μM Rauwolscine. Receptor proteins were harvested on 0.33% PEI(poly-ethylenemine) soaked GFC filter mat, the specifically bound [^3H]MK-912 were counted to determine total binding. Compounds were screened at various concentrations, using 1% DMSO as vehicle. percent inhibition of specific binding was determined. Biochemical assay results are presented as the percent Inhibition of specific binding in Table B1b, or estimated Ki values in Table B1c.

SMILES | inhibition at 0.01 µM [1] [%] | Percentage inhibition of ligand binding, Adrenergic α2B (30 nM) ([1]; 30 nM compound) [%] | Percentage inhibition of ligand binding, Adrenergic α2B (0.1 μM) ([1]; 0.1 μM compound) [%] | Percentage inhibition of ligand binding, Adrenergic α1B (0.1 μM) [2] [%] | Percentage inhibition of ligand binding, Adrenergic α1B (0.3 μM) [2] [%] | Percentage inhibition of ligand binding, Adrenergic α2A (0.1 μM) [3] [%] | Percentage inhibition of ligand binding, Adrenergic α2A (0.3 μM) ([3]; 0.3 µM) [%] | Percentage inhibition of ligand binding, Adrenergic α2B (10 nM) [1] [%] | inhibition at 0.3 µM [3] [%] | Percentage inhibition of ligand binding, Adrenergic α2A (0.3 μM) [3] [%] | inhibition at 0.03 µM ([1]; 30 nM compound, read-out: Percentage inhibition of ligand binding, Adrenergic α2B (30 nM)) [%] | inhibition at 0.1 µM ([1]; 0.1 μM compound, read-out: Percentage inhibition of ligand binding, Adrenergic α2B (0.1 μM)) [%]
Cc1ccc2c(c1)c1c(n2CC(O)c2ccncc2)CNC2CCCC12 (single isomer, unassigned) [34a] | 21 | −12 | −11 | −2 | −10 | −9 | −5 |  |  |  |  | 
Cc1ccc2c(c1)c1c(n2CC(O)c2ccncc2)CNC2CCCC12 (single isomer, unassigned) [34b] |  | 6 | 32 | −16 | 12 | −7 | −2 | 15 |  |  |  | 
Cc1ccc2c(c1)c1c(n2CC(O)c2ccncc2)CNC2CCCC12 (single isomer, unassigned) [34d] |  | 2 | 25 | 6 | 22 | −2 | −1 | 14 |  |  |  | 
Cc1ccc2c(c1)c1c(n2CC(O)c2ccncc2)CN(C)C2CCCC12 (single isomer, unassigned) [36a] |  | −5 | −3 | −2 | 12 | −16 |  | 8 | -5 |  |  | 
Cc1ccc2c(c1)c1c(n2CC(O)c2ccncc2)CN(C)C2CCCC12 (single isomer, unassigned) [36b] |  | −14 | −10 | 0 | 5 | −7 |  | −19 |  | −5 |  | 

Other lines, results leading:

inhibition at 0.01 µM [1] [%] | Percentage inhibition of ligand binding, Adrenergic α2B (30 nM) ([1]; 30 nM compound) [%] | Percentage inhibition of ligand binding, Adrenergic α2B (0.1 μM) ([1]; 0.1 μM compound) [%] | Percentage inhibition of ligand binding, Adrenergic α1B (0.1 μM) [2] [%] | Percentage inhibition of ligand binding, Adrenergic α1B (0.3 μM) [2] [%] | Percentage inhibition of ligand binding, Adrenergic α2A (0.1 μM) [3] [%] | Percentage inhibition of ligand binding, Adrenergic α2A (0.3 μM) ([3]; 0.3 µM) [%] | Percentage inhibition of ligand binding, Adrenergic α2B (10 nM) [1] [%] | inhibition at 0.3 µM [3] [%] | Percentage inhibition of ligand binding, Adrenergic α2A (0.3 μM) [3] [%] | inhibition at 0.03 µM ([1]; 30 nM compound, read-out: Percentage inhibition of ligand binding, Adrenergic α2B (30 nM)) [%] | inhibition at 0.1 µM ([1]; 0.1 μM compound, read-out: Percentage inhibition of ligand binding, Adrenergic α2B (0.1 μM)) [%] | SMILES
27 |  |  | 26 | 34 | 14 |  |  | 21 |  | 50 | 69 | Cc1ccc2c(c1)c1c(n2CC(C)(O)c2ccncc2)CC2CCCN2C1 (single isomer, unassigned) [37a]
 | 48 | 75 | 40 | 68 | 15 | 17 | 25 |  |  |  |  | Cc1ccc2c(c1)c1c(n2CC(C)(O)c2ccncc2)CC2CCCN2C1 (single isomer, unassigned) [37b]
 | 46 | 73 | 15 | 37 | −2 | 14 | 19 |  |  |  |  | Cc1ccc2c(c1)c1c(n2CC(C)(O)c2ccncc2)CC2CCCN2C1 (single isomer, unassigned) [37c]
 | 36 | 68 | 5 | 14 | 4 | 17 | 15 |  |  |  |  | Cc1ccc2c(c1)c1c(n2CC(C)(O)c2ccncc2)CC2CCCN2C1 (single isomer, unassigned) [37d]
 | 38 | 62 | 15 | 36 | 12 | 26 | 15 |  |  |  |  | Cc1ccc2c(c1)c1c(n2CC(C)(O)c2ccc(N(C)C)nc2)CCN(C)C1 (single isomer, unassigned) [39a]
